# What was measured:
# [1] = Inhibition of PKA (unknown origin); set-up: species or system Homo sapiens
# [2] = target: Rho-associated protein kinase 2 (Homo sapiens, UniProt O75116); assay: Inhibition of human recombinant 6-His-tagged ROCK2 expressed in baculovirus-infected Sf9 cells using LCB-AKRRRLSSLRA-NH2 as substrate after 25 mins by TR-FRET assay
# Chain of Rho-associated protein kinase 2 (O75116 whole entry): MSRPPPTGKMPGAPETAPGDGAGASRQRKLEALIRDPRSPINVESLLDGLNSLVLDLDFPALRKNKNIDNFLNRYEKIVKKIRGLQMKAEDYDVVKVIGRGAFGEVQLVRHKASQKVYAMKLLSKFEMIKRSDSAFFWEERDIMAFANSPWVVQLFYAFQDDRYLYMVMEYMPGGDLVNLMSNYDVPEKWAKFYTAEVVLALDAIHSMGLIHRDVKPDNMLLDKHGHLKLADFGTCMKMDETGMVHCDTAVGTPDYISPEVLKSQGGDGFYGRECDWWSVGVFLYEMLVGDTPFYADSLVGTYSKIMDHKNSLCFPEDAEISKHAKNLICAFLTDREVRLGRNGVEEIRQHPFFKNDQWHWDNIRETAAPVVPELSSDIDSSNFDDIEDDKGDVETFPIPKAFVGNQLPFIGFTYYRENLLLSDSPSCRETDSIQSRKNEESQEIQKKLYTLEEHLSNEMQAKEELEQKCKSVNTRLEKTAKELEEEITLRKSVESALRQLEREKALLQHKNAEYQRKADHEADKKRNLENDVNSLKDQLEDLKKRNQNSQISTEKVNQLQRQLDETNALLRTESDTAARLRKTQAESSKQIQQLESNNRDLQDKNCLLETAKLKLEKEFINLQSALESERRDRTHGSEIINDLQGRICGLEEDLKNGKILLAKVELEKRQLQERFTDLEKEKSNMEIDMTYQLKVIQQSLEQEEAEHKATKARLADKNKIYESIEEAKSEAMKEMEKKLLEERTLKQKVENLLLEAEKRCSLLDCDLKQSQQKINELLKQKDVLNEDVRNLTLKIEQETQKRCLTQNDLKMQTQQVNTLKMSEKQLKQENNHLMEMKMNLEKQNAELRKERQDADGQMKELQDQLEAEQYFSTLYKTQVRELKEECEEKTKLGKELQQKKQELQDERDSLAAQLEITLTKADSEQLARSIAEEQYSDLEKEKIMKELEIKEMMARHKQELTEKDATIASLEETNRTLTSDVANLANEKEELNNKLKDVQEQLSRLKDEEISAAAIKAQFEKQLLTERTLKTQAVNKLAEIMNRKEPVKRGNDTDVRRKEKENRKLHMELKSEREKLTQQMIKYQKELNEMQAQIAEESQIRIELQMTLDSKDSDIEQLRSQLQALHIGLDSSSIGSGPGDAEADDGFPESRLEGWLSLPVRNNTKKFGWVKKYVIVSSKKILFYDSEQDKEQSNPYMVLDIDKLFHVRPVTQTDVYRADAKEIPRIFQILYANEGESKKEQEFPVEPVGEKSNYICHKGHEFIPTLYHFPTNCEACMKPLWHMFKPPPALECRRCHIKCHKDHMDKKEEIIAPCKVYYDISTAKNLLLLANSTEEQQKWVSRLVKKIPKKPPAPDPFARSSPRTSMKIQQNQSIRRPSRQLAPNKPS
SMILES,IC50 [1] [nM],IC50 [2] [nM]
NCCC(=O)NC(c1ccc(Cl)cc1)c1nc2ccc(-c3cn[nH]c3)cc2c(=O)[nH]1 (configuration not stated),21,6
C[N+]1(C)C[C@@H](c2ccccc2)[C@H](c2nc3ccc(-c4cn[nH]c4)cc3c(=O)[nH]2)C1,23,4
CN(CCO)c1nc([C@@H](N)Cc2cccc(F)c2)nc2ccc(-c3cn[nH]c3)cc12,284,27
CN(CCO)c1nc([C@H](N)Cc2cccc(F)c2)nc2ccc(-c3cn[nH]c3)cc12,44,27
Fc1ccc([C@@H]2CNC[C@H]2c2nc(N3CCC3)c3cc(-c4cn[nH]c4)ccc3n2)cc1,443,71
Nc1nccc(-c2ccc3nc([C@@H]4CNC[C@H]4c4ccccc4)[nH]c(=O)c3c2)n1,10,6
CN(C)CCNc1nc([C@@H]2CNC[C@H]2c2ccc(F)cc2)nc2ccc(-c3cn[nH]c3)cc12,884,371
N[C@@H](Cc1ccccc1)c1nc2ccc(-c3cn[nH]c3)cc2c(=O)[nH]1,7,12
NCc1cccc(C(=O)NC(c2ccc(Cl)cc2)c2nc3ccc(-c4cn[nH]c4)cc3c(=O)[nH]2)c1 (configuration not stated),28,20
O=c1[nH]c([C@@H]2CNC[C@H]2c2ccccc2)nc2ccc(-c3ccncc3)cc12,29,23
O=c1[nH]c([C@@H]2CN(Cc3ccccc3)C[C@H]2c2ccccc2F)nc2ccc(-c3cn[nH]c3)cc12,233,49
CN(C)CCN(C)c1nc([C@H](N)Cc2cccc(F)c2)nc2ccc(-c3cn[nH]c3)cc12,1160,627
O=C(Cc1cccnc1)N[C@H](Cc1ccc(Cl)cc1)c1nc2ccc(-c3cn[nH]c3)cc2c(=O)[nH]1,,239
CN(C)c1nc([C@@H](N)Cc2cccc(F)c2)nc2ccc(-c3cn[nH]c3)cc12,259,67
CN(CCCO)c1nc([C@H](N)Cc2cccc(F)c2)nc2ccc(-c3cn[nH]c3)cc12,,159
O=c1[nH]c([C@@H]2CN(Cc3ccccc3)C[C@H]2c2cccc(F)c2)nc2ccc(-c3cn[nH]c3)cc12,423,225
N[C@@H](Cc1ccccc1)c1nc2ccc(-c3ccncc3)cc2c(=O)[nH]1,49,52
O=c1[nH]c([C@@H]2CNC[C@H]2c2ccc(F)cc2)nc2ccc(-c3cn[nH]c3)cc12,7,2
COc1cc(-c2cn[nH]c2)cc2c(=O)[nH]c([C@@H](N)Cc3cccc(F)c3)nc12,26,8
COc1ccc([C@@H]2CN(Cc3ccccc3)C[C@H]2c2nc3ccc(-c4cn[nH]c4)cc3c(=O)[nH]2)cc1,117,88
N[C@H](Cc1cccc(C(F)(F)F)c1)c1nc2ccc(-c3cn[nH]c3)cc2c(=O)[nH]1,28,16

# Results, then the compound that gave them:
IC50 [1] [nM],IC50 [2] [nM],SMILES
9,10,NC(c1ccc(Cl)cc1)c1nc2ccc(-c3cn[nH]c3)cc2c(=O)[nH]1 (configuration not stated)
5,4,N[C@H](Cc1ccc(Cl)cc1)c1nc2ccc(-c3cn[nH]c3)cc2c(=O)[nH]1
38,39,COc1ccc(C[C@H](N)c2nc3ccc(-c4cn[nH]c4)cc3c(=O)[nH]2)cc1OC
6,13,N[C@H](Cc1cccc(Cl)c1)c1nc2ccc(-c3cn[nH]c3)cc2c(=O)[nH]1
,98,COc1ccc(C(N)c2nc3ccc(-c4c[nH]nc4C)cc3c(=O)[nH]2)cc1 (configuration not stated)
14,9,COc1cc(-c2cn[nH]c2)cc2c(=O)[nH]c(C(N)c3ccc(Cl)cc3)nc12 (configuration not stated)
7,7,Cc1n[nH]cc1-c1ccc2nc([C@@H]3CNC[C@H]3c3ccccc3)[nH]c(=O)c2c1
60,19,CCOc1ccc(C[C@H](N)c2nc3ccc(-c4cn[nH]c4)cc3c(=O)[nH]2)cc1
9,10,N[C@H](Cc1cccc(F)c1)c1nc2ccc(-c3cn[nH]c3)cc2c(=O)[nH]1

# Reference: ChEMBL document CHEMBL2331421, “Amino acid derived quinazolines as Rock/PKA inhibitors” (Bioorg Med Chem Lett, 2013)
